# Source: patent US10286038B2, “Lysosome membrane protein 2 (LIMP-2) based peptides and related uses” (Northwestern University, priority 2016, dated 2019)
# Target: T1, GC in H4 cells (Homo sapiens, UniProt P04062)
# T1 construct: Lysosomal GC activity of living H4 cells measured in vivo after incubation with uptake-optimized TAT-peptides; endogenous in cells; host or cells: H4 human neuroglioma cells (for the 74 h course: stably overexpressing α-synuclein)
# T1 sequence (P04062 40-536): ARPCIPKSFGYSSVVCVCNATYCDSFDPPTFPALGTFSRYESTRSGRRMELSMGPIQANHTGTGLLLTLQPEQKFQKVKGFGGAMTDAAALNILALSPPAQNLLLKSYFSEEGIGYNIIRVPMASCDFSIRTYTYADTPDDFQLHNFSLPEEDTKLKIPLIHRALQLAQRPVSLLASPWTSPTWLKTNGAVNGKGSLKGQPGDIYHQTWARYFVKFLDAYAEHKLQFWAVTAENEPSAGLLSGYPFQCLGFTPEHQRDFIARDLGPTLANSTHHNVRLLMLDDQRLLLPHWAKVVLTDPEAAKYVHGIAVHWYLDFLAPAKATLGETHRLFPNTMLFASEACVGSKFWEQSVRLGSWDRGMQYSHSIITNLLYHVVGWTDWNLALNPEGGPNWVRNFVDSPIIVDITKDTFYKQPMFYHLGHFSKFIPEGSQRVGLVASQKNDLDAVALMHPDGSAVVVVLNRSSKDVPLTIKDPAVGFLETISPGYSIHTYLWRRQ
# Test: whole cell GC activity of H4 cell lysate over the 74 hrs time course
# Assay type: cell-based
# Settings: H4 cells incubated with TAT-peptide
# Procedure: FIG. 6: Characterization of a helical LIMP-2-derived peptide. […] B) In vitro peptide pulldown assay: helix 5 peptides were incubated with recombinant LAMAN and bovine serum albumin (BSA). INPUT and BOUND fractions were loaded onto SDS-PAGE and proteins visualized by coomassie staining (CBB). C) Densitometry of LAMAN and BSA protein bound to peptide, normalized to protein fraction bound to beads only (buffer; n=2-3). D) and E) Activity assay of recombinant (D) GC and (E) LAMAN incubated with different excess molarities (1×-10×) of helix 5 peptide (n=β-5) and LIMP-2 ectodomain (n=4). GC activities were normalized and statistical analyses compared to 0 input of BSA/helix 5 peptide. F) Peptide-pulldown of GC constructs overexpressed in N2a cells with subsequent Western blot analysis (α-hGC) utilizing helix 5 and the 3×D control peptide as a negative binding control. G) Densitometry of GC protein bound to peptides; each construct is normalized to buffer only. H) Live-cell lysosomal GC activity of H4 cells after uptake of helix 5 and 3×D TAT peptides. GC activity was measures every 30 minutes up to 3.5 hours. Cells were treated with DMSO or the “lysosomal inhibitor” bafilomycinA1. […] Lysosomal activity is calculated by subtracting the AUC of DMSO with the AUC of bafilomycinA1 treated samples (n=4). […] GC activity was measured from 16-74 hours and is shown in mU/mg (n=3). […]
substance,measurement,value
Biotin-Ttds-KFERQLREIIEAMLKAYQQKLFVTHTVDEYGRKKRRQRRR [helix 5 TAT-peptide],enhancement of GC activity over the 74 hrs time course,persists
